The nature of this data set: gradient 5% acetonitrile 3 min, to 50% in 2 min, to 85% in 15 min, held 3 min, 100 µL/min. The settings on record: column: Zorbax Extend-C18 2.1 x 50 mm; eluents: water / acetonitrile, 0.1% formic acid. An outline of the steps: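 Pure standards were run in mixtures of ~100 molecules by HPLC coupled to a quadrupole time-of-flight mass spectrometer. The column was a Zorbax Extend-C18 (2.1 × 50 mm, 1.8 μm) at 100 μL/min, with water and acetonitrile each containing 0.1% formic acid, in positive and negative ionization mode. Dead and dwell volumes were 40 μL and 900 μL. Retention time was taken from computationally picked adduct peaks, each manually inspected, with data collected over 3 months.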
Regarding `COc1ccc(NC(=O)N2CCCC(C)(C(=O)NCc3ccccc3)C2)cc1OC` (stereo not given), the RP-LC retention time amounted to 846 s.

As to `COC(=O)c1c(C)[nH]c(C(=O)N2CCC(CC(=O)NCCN3CCCCC3C)CC2)c1C` (stereo not given), the RP-LC retention time was determined as 592 s.

`Cc1ccc(CN2C[C@@H]3C(=O)N(Cc4ccc5c(c4)OCO5)C(=O)[C@@H]3C2)cc1C` had an RP-LC retention time of 691 s. For `Cc1cccc(-c2nocc2CCC(=O)NC(C)c2ccc(F)cc2)c1` (stereo not given) the value was 965 s; for `CCCn1cc(C(=O)NCc2ccccn2)c2cccnc21`, 595 s.

Regarding `Cc1ccc(-c2c(C(F)(F)F)nn3c(N4CCN(c5ccccn5)CC4)cc(C)nc23)cc1`, the RP-LC retention time was found to be 910 s. On to `CCN1c2cc(C(=O)NCc3cccs3)ccc2C(=O)N2CCCCC21` (stereo not given), for which the RP-LC retention time worked out at 822 s.

On to `Cc1noc2ncn(CC(=O)NCCCc3ccccc3)c(=O)c12`, for which the RP-LC retention time worked out at 764 s. The compound `COCCNC(=O)C1CCN(c2nc3ccc(-c4ccccc4)nc3s2)CC1` displayed an RP-LC retention time of 832 s. For the compound `O=C(CC1(O)C(=O)Nc2c(Cl)cc(Cl)cc21)c1cccc2ccccc12` (stereo not given), the RP-LC retention time turned out to be 862 s. The result for `Cc1occc1C(=O)NC1CCc2nn(C)c(=O)n2CC1` (stereo not given) reads 604 s; that for `O=C(C1=C(O)C(=O)N(CCCn2ccnc2)C1c1cccc([N+](=O)[O-])c1)c1cccs1` (stereo not given), 565 s; that for `CC(C)(CO)NC(=O)Cc1ccc(NC(=O)CSc2ccc(F)cc2)cc1`, 681 s. Take `O=C(Cn1ccc2ccc(N3CCOCC3)nc21)NCc1ccccc1Cl`: the RP-LC retention time turned out to be 905 s. The result for `Cc1ccc(N2C(=O)C3N=NN(Cc4nc(-c5ccc6c(c5)OCO6)no4)C3C2=O)cc1Cl` (stereo not given) reads 1010 s; that for `Cc1c(Cl)cccc1-n1ccnc(NC(=O)Nc2ccc(F)cc2)c1=O`, 1000 s.

The compound `Cc1cc(N2CCN(S(=O)(=O)c3cc(F)ccc3F)CC2)nc(N2CCCC2)n1` registered an RP-LC retention time of 717 s.

As to `CN(CC1CCOCC1)C(=O)Nc1cc(F)c(F)c(F)c1`, the RP-LC retention time is 804 s.

Turning to `CNS(=O)(=O)c1cccnc1Nc1ccc(F)c(Cl)c1`, the RP-LC retention time turned out to be 973 s. `CCc1noc2nc(C)n(CC(=O)NCCc3ccc(C)cc3)c(=O)c12`: the RP-LC retention time turned out to be 851 s. Turning to `COC(=O)c1cc(C2CC2)nc2c1c(=O)n(Cc1ccc(F)cc1)c(=O)n2C`, the RP-LC retention time came to 1090 s. Consider `Cn1cc(-c2cc3n(n2)CCC(=O)N3CC(=O)N2CCN(c3ccccn3)CC2)c2ccccc21`, for which the RP-LC retention time was found to be 626 s. The compound `COC(=O)CCNC(=O)c1cc2c(=O)n(CC(C)C)c3ccccc3n2n1` returned an RP-LC retention time of 828 s. Regarding `CCC(=O)Nc1ccc2c(c1)CN(C(=O)c1ccccc1Cl)C(C(=O)N1CCCC1)C2` (stereo not given), the RP-LC retention time worked out at 714 s. The result for `Cc1ccc(NC(=O)Cn2nc(C(=O)N3CCCCC3)c3ccccc32)c(Br)c1` reads 973 s; that for `CCCNC(=O)C1CCCN(c2ccc(SCC(=O)Nc3ccc(OC)cc3)nn2)C1` (stereo not given), 647 s; that for `Cc1nnc(-c2nnc(NCC3CCCCC3)c3ccccc23)o1`, 772 s. The result for `O=C(Nc1ccccc1C(F)(F)F)N1CC(n2cnnc2-c2ccccc2)C1` reads 710 s; that for `CC(C)(C)c1noc(-c2ccc(=O)n(Cc3cccc(F)c3)n2)n1`, 1050 s. For `CNC(=O)C1CCCN(c2nc3ncn(CC(=O)NC4CCCC4)c(=O)c3s2)C1` (stereo not given) the value was 605 s. The compound `CCCOc1ccc(C(=O)Nc2nnc(C3CC(=O)N(c4ccc(Cl)cc4)C3)o2)cc1` (stereo not given) displayed an RP-LC retention time of 909 s. With `Cc1ccc(Nc2c(-c3ccc(Cl)cc3)nc3cnccn23)c(Br)c1`, the RP-LC retention time was determined as 1170 s. Consider `CCOC(=O)Nc1ccc(S(=O)(=O)N2CCC(c3nc4ccccc4[nH]3)CC2)cc1`, for which the RP-LC retention time was 582 s. In turn, `CCC1CCCCN1CCNC(=O)CCc1cc2cc(OC)ccc2[nH]c1=O` (stereo not given) displayed an RP-LC retention time of 593 s.

In the case of `CS(=O)(=O)N1CCC(F)(c2nc(-c3ccccc3)no2)CC1`, the RP-LC retention time stood at 913 s.

The compound `COc1ccccc1OCc1nn2c(CSc3ccccc3)nnc2s1` showed an RP-LC retention time of 882 s. As to `Cc1ccc2nc(-c3ccc(NS(=O)(=O)c4cn(C)c(=O)n(C)c4=O)cc3)sc2c1`, the RP-LC retention time is 870 s. `CCC(C)(C)N=C(NC#N)Nc1cccnc1` yielded an RP-LC retention time of 689 s. For the compound `Cc1ccccc1CNC(=O)C1(C)CCCN(C(=O)Nc2ccc(Br)cc2)C1` (stereo not given), the RP-LC retention time was 1020 s. `O=C(NC1CCCCC1)c1nc(-c2ccnc(N3CCCCC3)c2)no1` gave an RP-LC retention time of 804 s. As for `COc1ccc(NC(=O)N2CCC(CN3CCCC(C)C3)CC2)cc1Cl` (stereo not given), the RP-LC retention time is 629 s. `Cc1nc2cc(NC(=O)c3cn(C)nn3)ccc2s1` returned an RP-LC retention time of 629 s. The compound `Cn1c(N2CCN(C(=O)c3ccc4c(c3)OCO4)CC2)cc(=O)n(C)c1=O` registered an RP-LC retention time of 637 s. On to `CCCNC(=O)C1CCN(c2nc3ccc(-c4ccsc4)nc3s2)CC1`, for which the RP-LC retention time worked out at 851 s. In the case of `O=C(Nc1cccc(F)c1)Nc1ccc2nncn2c1`, the RP-LC retention time was found to be 686 s. As for `Cc1nn(C(C)C(=O)NCCCN2CCCCC2)c(=O)c2c(-n3cccc3)n(-c3ccccc3)nc12` (stereo not given), the RP-LC retention time turned out to be 700 s. Compound `Cc1nn(CC(=O)NCc2ccc(F)cc2)c(=O)c2nc(-c3ccccc3)sc12` showed an RP-LC retention time of 872 s.

As for `COCCCNC(=O)C1CCN(c2ncccc2S(=O)(=O)N2CCOCC2)CC1`, the RP-LC retention time turned out to be 613 s. The compound `O=C(c1ccccc1)N1CCN(S(=O)(=O)c2cc3c4c(c2)CCC(=O)N4CCC3)CC1` gave an RP-LC retention time of 789 s. Compound `CCC(C)n1c(=O)c2ccccc2n(Cc2nc(-c3ccc(Br)cc3)no2)c1=O` (stereo not given) came in with an RP-LC retention time of 1320 s. `CC(C)c1csc(-c2csc(S(=O)(=O)NCc3ccc(Cl)cc3)c2)n1` gave an RP-LC retention time of 1160 s. `CCN1C(=O)COc2ccc(-c3noc(-c4ccc(C)cc4)n3)cc21` registered an RP-LC retention time of 1230 s.

Regarding `Cc1nn(C)cc1CN(C)C(=O)CCC1CCCN(c2cc(NC3CC3)ncn2)C1` (stereo not given), the RP-LC retention time turned out to be 597 s.

Take `CC(C)C(=O)N1CCc2c(c(C(=O)NCc3ccc4c(c3)OCO4)nn2C)C1`: the RP-LC retention time was 708 s. The compound `O=C(NCc1ccc(F)cc1Cl)C1CCCN(c2nn3c(=O)c4c(nc3s2)CCCC4)C1` (stereo not given) had an RP-LC retention time of 827 s. The compound `CCn1nccc1C(=O)N1CCC(n2c(-c3ccsc3)nc3cccnc32)C1` (stereo not given) yielded an RP-LC retention time of 643 s. `CCC(=O)N1CCc2c(C(=O)NC3CCCCC3)cccc21` came in with an RP-LC retention time of 831 s. `O=C(NCC1CCCO1)C1CCN(c2nnc(-c3ccccc3)o2)CC1` (stereo not given) registered an RP-LC retention time of 649 s.

As for `O=C(CCCn1c(=O)c2cccn2c2ccc(Br)cc21)NCc1ccc2c(c1)OCO2`, the RP-LC retention time worked out at 915 s. For `CCOC(=O)c1nc(NCC2CCN(Cc3ccccc3Cl)CC2)c2ccccc2n1` the value was 1060 s; for `Cc1ccccc1Nc1c(-c2cc(Br)ccc2F)nc2ccccn12`, 808 s; for `Cc1cc(C)c2c(N3CCCC3)nc(C(=O)Nc3ccc(N4CCOCC4)cc3)nc2n1`, 612 s. As for `CCCN1CCc2cccc3c2[C@H]1Cc1ccc(O)c(O)c1-3`, the RP-LC retention time was 652 s. Consider `CN(C)CCNC(=O)c1nc(N2CCSCC2)c2cnn(C)c2n1`, for which the RP-LC retention time came out at 560 s.

`COc1ccc2[nH]cc(CCN3CC(C(=O)Nc4ccc(Br)cc4)CC3=O)c2c1` (stereo not given) yielded an RP-LC retention time of 844 s. As for `CNC(=O)c1cccc(Nc2c(-c3ccc(SC)cc3)nc3cnccn23)c1`, the RP-LC retention time turned out to be 692 s. The compound `CC(C)NC(=O)N1CCCC(c2nc(C(C)C)no2)CCNC(=O)CC1` (stereo not given) yielded an RP-LC retention time of 658 s. For the compound `O=C(c1nnc(-c2ccc(S(=O)(=O)N3CCCCC3)cc2)o1)N1CCN(c2ccccc2F)CC1`, the RP-LC retention time was found to be 1130 s. For the compound `O=C(NCc1ccco1)c1ccc(NC(=O)C2CCC2)cc1N1CCCCC1`, the RP-LC retention time was 763 s.

As to `Cc1nc(N)nc(Cl)c1CCC1OCCO1`, the RP-LC retention time turned out to be 673 s. Consider `O=C(NCCc1csc(-c2ccccc2)n1)C1CCN(C(=O)Cc2cccs2)CC1`, for which the RP-LC retention time was determined as 794 s. In the case of `CCOC(=O)c1c(C)oc2nc(C)nc(NCCCN3CCN(c4cccc(C)c4)C(C)C3)c12` (stereo not given), the RP-LC retention time is 778 s. The result for `O=C(Nc1ccccc1NC(=O)c1ccc(Br)o1)c1ccsc1` reads 806 s.

In the case of `COC(=O)CNC(=O)NCCn1c(-c2ccc(F)cc2)nc2ccccc21`, the RP-LC retention time was determined as 696 s. Consider `CNC(=O)[C@H]1C[C@H](Oc2ccccc2)CN1C(=O)CCc1nc2ccccc2s1`, for which the RP-LC retention time was 759 s. For `COCc1c(C(=O)O)nnn1-c1ccc(C)c(F)c1` the value was 741 s; for `COc1ccc(Cl)cc1NC(=O)N(C)CC1CCOCC1`, 816 s; for `COCC(=O)Nc1ccc2c(c1)Sc1ncccc1C(=O)N2C(C)C`, 645 s. With `COCC(C)NC(=O)c1cc2c(s1)N(CC(C)C)CCCC2` (stereo not given), the RP-LC retention time came to 1080 s. For the compound `O=C(NOCC(O)CO)c1cc(Br)c(F)c(F)c1Nc1ccc(I)cc1F` (stereo not given), the RP-LC retention time is 879 s.
